# Laboratory results taken from US5686421A, “Hydantoin derivates” (Hoechst Aktiengesellschaft, priority 1990, dated 1997).
# Where two headings read alike, the source gives them in different places.
# System: human GFP (gel-filtered platelets)
# Experiment: Inhibition of platelet aggregation, human gel-filtered platelets stimulated with ADP or thrombin
# Format: cell-based
# Source text: The compounds are particularly tested for their inhibitory action on the aggregation of blood platelets and the adhesion of fibrinogen to blood platelets. Gel-filtered blood platelets from donated human blood are used and are activated with ADP or thrombin.
# Inhibition of platelet aggregation to human GFP (gel-filtered platelets) stimulated with adenosine diphosphate (ADP) or thrombin (THR) (Marguerie, Plow and Edgington, J. Biol. Chem. 254 (1979) 5357-5363)
# [1] = human GFP stimulated with adenosine diphosphate (ADP), read-out: IC50 (μM) ADP
# [2] = human GFP stimulated with thrombin (THR), read-out: IC50 (μM) THR
Compound,IC50 [1] [µM],IC50 [2] [µM]
"COc1ccc(C(NC(=O)[C@H](CC(=O)O)NC(=O)CN2C(=O)N[C@@H](CCCN=C(N)N)C2=O)c2ccc(OC)cc2)cc1 [[5-(S)-(3-guanidino-propyl)-2,4-dioxo-imidazolidin-3-yl]acetyl-Asp 4,4'-dimethoxybenzhydrylamide]",10,4
"COc1ccc(C(NC(=O)[C@H](CC(=O)O)NC(=O)CN2C(=O)N[C@H](CCCN=C(N)N)C2=O)c2ccc(OC)cc2)cc1 [[5-(R)-(3-guanidino-propyl)-2,4-dioxo-imidazolin-3-yl]acetyl Asp 4,4'-dimethoxybenzhydrylamide]",4,3
"NC(=O)[C@H](CC(=O)O)NC(=O)CN1C(=O)N[C@@H](CCCN=C(N)N)C1=O [[5-(S)-(3-guanidinopropyl)-2,4-dioxo-imidazolidin-3-yl]acetyl-Asp-amide]",40,40
ZDArgGlyAspNHMbh,20,20
"N=C(N)NCCC[C@H]1NC(=O)N(CC(=O)N[C@@H](CC(=O)O)C(N)=O)C1=O [[5-(R)-(3-guanidino-propyl)-2,4-dioxo-imidazolidin-3-yl]acetyl-L-Asp-amide]",20,15
ZDArgGlyAspNH2,100,80
N=C(N)NCCC[C@@H](N)C(=O)NCC(=O)N[C@@H](CC(=O)O)C(N)=O [HDArgGlyAspNH2],500,100
N=C(N)NCCC[C@H](N)C(=O)NCC(=O)N[C@@H](CC(=O)O)C(N)=O [HArgGlyAspNH2],500,200
